Measured values reported in patent publication US20140142094A1, “KINASE INHIBITORS” (ICAHN SCHOOL OF MEDICINE AT MOUNT SINAI, priority 2011, published 2014).

What was measured:
DU145 (prostate cancer) = test: Cytotoxicity on DU145 cancer cell line; assay type: cell-based; settings: Homo sapiens, DU-145; DU145 cells, 96 h treatment
Protocol: (§1) The effect of the compounds described herein on tumor cells was determined by the assay described by Latham et al., Oncogene 12:827-837 (1996). Tumor cells K562 (chronic myelogenous leukemia; leukemia cell line +ve for Bcr-Abl) or DU145 (prostate cancer) were plated in 12-well dishes at a cell density of 2.5×10^4 cells per well. The plated cells were treated 24h. later with a DMSO solution of a compound as described herein at multiple concentrations ranging from 0.01 μM to 100 μM. The plates were examined 96 h. later under an inverted microscope, Olympus CK-2 using a 10× objective, and compound activity was noted by physical observation. When necessary, the total number of viable cells was determined by trypsinizing the wells and counting the number of viable cells, as determined by trypan blue exclusion, using a hemacytometer.

[1] = system: K562 (chronic myelogenous leukemia; leukemia cell line +ve for Bcr-Abl); test: Cytotoxicity on K562 cancer cell line; assay type: cell-based; settings: Homo sapiens; K562 cells, 96 h treatment
Protocol: as §1

ABL2/ARG = biological target: T1, ABL2/ARG (Homo sapiens, UniProt P42684); test: Kinase inhibition assay (Reaction Biology); assay type: biochemical; settings: 10 μM ATP; 5-dose IC50 mode
T1 construct: purchased Reaction Biology Corporation
Protocol: (§2) Kinase assays were performed at Reaction Biology Corporation. To a freshly prepared buffer solution was added the target kinase at a concentration of 20 μM. The contents were mixed gently, and then compound 1b dissolved in DMSO was added to the reaction mixture in the appropriate concentration. The mixture was incubated at room temperature for 30 min. prior to addition of ATP to initiate the reaction. Compound 1b was tested in a 5-dose IC50 mode with 10-fold serial dilutions starting at 10 μM. Staurosporine was used as a control compound in a 10-dose IC50 mode with 3-fold serial dilutions starting at 20 μM. Reaction was carried out at 10 μM ATP concentration.

PI3K-δ = biological target: T2, PI3K-δ (Homo sapiens, UniProt O00329); test: Kinase inhibition assay (Reaction Biology); assay type: biochemical; settings: Table 2; 10 μM ATP; 5-dose IC50 mode
T2 construct: purchased Reaction Biology Corporation
Protocol: as §2

RPIK2 = biological target: T3, RPIK2 (Homo sapiens, UniProt O43353); test: Kinase inhibition assay (Reaction Biology); assay type: biochemical; settings: 10 μM ATP; 5-dose IC50 mode
T3 construct: purchased Reaction Biology Corporation
Protocol: as §2

FGR = biological target: T4, FGR (Homo sapiens, UniProt P09769); test: Kinase inhibition assay (Reaction Biology); assay type: biochemical; settings: 10 μM ATP; 5-dose IC50 mode
T4 construct: purchased Reaction Biology Corporation
Protocol: as §2

ABL1 = biological target: T5, ABL1 (Homo sapiens, UniProt P00519); test: Kinase inhibition assay (Reaction Biology); assay type: biochemical; settings: 10 μM ATP; 5-dose IC50 mode
T5 construct: purchased Reaction Biology Corporation
Protocol: as §2

PI3K-α = biological target: T6, PI3K-α (Homo sapiens, UniProt P42336); test: Kinase inhibition assay (Reaction Biology); assay type: biochemical; settings: Table 2; 10 μM ATP; 5-dose IC50 mode
T6 construct: purchased Reaction Biology Corporation
Protocol: as §2

PIK3-β = biological target: T7, PIK3-β (Homo sapiens, UniProt P42338); test: Inhibition of PI3K kinases; assay type: biochemical; settings: Table 4; 10 μM ATP; 5-dose IC50 mode
T7 construct: purchased Reaction Biology Corporation
Protocol: as §2, with “were mixed gently and then” for “were mixed gently, and then”, “at 20 µM. Reaction was” for “at 20 μM. Reaction was”

PIK3-γ = biological target: T8, PIK3-γ (Homo sapiens, UniProt P48736); test: Inhibition of PI3K kinases; assay type: biochemical; settings: Table 4; 10 μM ATP; 5-dose IC50 mode
T8 construct: purchased Reaction Biology Corporation
Protocol: as §2, with “were mixed gently and then” for “were mixed gently, and then”, “at 20 µM. Reaction was” for “at 20 μM. Reaction was”

PIK3-δ = biological target: T9, PIK3-δ (Homo sapiens, UniProt O00329); test: Inhibition of PI3K kinases; assay type: biochemical; settings: Table 4; 10 μM ATP; 5-dose IC50 mode
T9 construct: purchased Reaction Biology Corporation
Protocol: as §2, with “were mixed gently and then” for “were mixed gently, and then”, “at 20 µM. Reaction was” for “at 20 μM. Reaction was”

PIK3-α = biological target: T10, PIK3-α (Homo sapiens, UniProt P42336); test: Inhibition of PI3K kinases; assay type: biochemical; settings: Table 4; 10 μM ATP; 5-dose IC50 mode
T10 construct: purchased Reaction Biology Corporation
Protocol: as §2, with “were mixed gently and then” for “were mixed gently, and then”, “at 20 µM. Reaction was” for “at 20 μM. Reaction was”

ABL1 (E255K) = biological target: T11, ABL1 (E255K) (Homo sapiens, UniProt P00519, E255K); test: Inhibition of ABL mutants; assay type: biochemical; settings: 10 μM ATP; 5-dose IC50 mode
T11 construct: purchased Reaction Biology Corporation
Protocol: as §2

ABL1 (Q252H) = biological target: T12, ABL1 (Q252H) (Homo sapiens, UniProt P00519, Q252H); test: Inhibition of ABL mutants; assay type: biochemical; settings: 10 μM ATP; 5-dose IC50 mode
T12 construct: purchased Reaction Biology Corporation
Protocol: as §2

ABL1 (H396P) = biological target: T13, ABL1 (H396P) (Homo sapiens, UniProt P00519, H396P); test: Inhibition of ABL mutants; assay type: biochemical; settings: 10 μM ATP; 5-dose IC50 mode
T13 construct: purchased Reaction Biology Corporation
Protocol: as §2

ABL1 (Y253F) = biological target: T14, ABL1 (Y253F) (Homo sapiens, UniProt P00519, Y253F); test: Inhibition of ABL mutants; assay type: biochemical; settings: 10 μM ATP; 5-dose IC50 mode
T14 construct: purchased Reaction Biology Corporation
Protocol: as §2

ABL1 (T315I) = biological target: T15, ABL1 (T315I) (Homo sapiens, UniProt P00519, T315I); test: Inhibition of ABL mutants; assay type: biochemical; settings: 10 μM ATP; 5-dose IC50 mode
T15 construct: purchased Reaction Biology Corporation
Protocol: as §2

ABL1 (G250E) = biological target: T16, ABL1 (G250E) (Homo sapiens, UniProt P00519, G250E); test: Inhibition of ABL mutants; assay type: biochemical; settings: 10 μM ATP; 5-dose IC50 mode
T16 construct: purchased Reaction Biology Corporation
Protocol: as §2

ABL1 (M351T) = biological target: T17, ABL1 (M351T) (Homo sapiens, UniProt P00519, M351T); test: Inhibition of ABL mutants; assay type: biochemical; settings: 10 μM ATP; 5-dose IC50 mode
T17 construct: purchased Reaction Biology Corporation
Protocol: as §2

T3 sequence (O43353 whole entry): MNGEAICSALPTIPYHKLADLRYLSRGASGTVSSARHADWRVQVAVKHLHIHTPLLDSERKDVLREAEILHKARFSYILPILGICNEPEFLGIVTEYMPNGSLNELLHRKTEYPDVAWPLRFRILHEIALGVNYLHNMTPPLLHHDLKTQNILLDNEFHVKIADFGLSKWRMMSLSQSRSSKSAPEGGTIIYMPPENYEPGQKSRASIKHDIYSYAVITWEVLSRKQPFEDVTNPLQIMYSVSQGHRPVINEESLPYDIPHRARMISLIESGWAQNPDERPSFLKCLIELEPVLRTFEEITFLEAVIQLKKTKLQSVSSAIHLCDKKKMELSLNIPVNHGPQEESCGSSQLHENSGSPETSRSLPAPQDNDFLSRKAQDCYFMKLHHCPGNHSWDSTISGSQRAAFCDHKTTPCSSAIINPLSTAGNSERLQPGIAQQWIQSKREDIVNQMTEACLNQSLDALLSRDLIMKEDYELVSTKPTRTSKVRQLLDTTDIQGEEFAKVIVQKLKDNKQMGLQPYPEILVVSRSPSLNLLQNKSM
T6 sequence (P42336 whole entry): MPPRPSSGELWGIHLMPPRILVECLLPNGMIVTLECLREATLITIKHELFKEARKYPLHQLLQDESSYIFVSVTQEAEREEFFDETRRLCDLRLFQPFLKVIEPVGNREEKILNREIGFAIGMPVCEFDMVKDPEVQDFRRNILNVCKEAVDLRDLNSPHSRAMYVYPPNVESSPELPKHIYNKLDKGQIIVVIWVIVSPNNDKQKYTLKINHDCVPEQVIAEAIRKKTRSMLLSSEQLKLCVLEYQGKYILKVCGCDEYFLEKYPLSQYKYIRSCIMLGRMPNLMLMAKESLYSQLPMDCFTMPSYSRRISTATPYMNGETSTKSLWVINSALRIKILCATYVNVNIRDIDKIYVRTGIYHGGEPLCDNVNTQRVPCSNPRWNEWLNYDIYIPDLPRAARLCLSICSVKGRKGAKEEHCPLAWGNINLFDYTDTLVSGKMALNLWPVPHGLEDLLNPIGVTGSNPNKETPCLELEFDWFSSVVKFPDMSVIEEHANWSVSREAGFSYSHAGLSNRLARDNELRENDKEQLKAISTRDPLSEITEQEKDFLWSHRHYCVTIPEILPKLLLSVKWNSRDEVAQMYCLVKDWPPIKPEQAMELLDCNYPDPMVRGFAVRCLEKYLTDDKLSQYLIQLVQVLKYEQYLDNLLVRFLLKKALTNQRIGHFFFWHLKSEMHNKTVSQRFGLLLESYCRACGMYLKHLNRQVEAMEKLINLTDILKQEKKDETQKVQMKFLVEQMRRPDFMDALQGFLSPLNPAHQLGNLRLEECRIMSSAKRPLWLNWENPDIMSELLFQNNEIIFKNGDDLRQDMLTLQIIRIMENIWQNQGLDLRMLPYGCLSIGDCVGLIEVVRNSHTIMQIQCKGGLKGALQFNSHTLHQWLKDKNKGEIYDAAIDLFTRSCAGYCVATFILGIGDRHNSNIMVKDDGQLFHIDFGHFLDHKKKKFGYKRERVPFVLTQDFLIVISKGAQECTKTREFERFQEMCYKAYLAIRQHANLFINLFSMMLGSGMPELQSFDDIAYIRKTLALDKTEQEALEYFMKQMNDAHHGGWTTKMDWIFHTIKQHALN
T6 sequence (P27986 whole entry partner): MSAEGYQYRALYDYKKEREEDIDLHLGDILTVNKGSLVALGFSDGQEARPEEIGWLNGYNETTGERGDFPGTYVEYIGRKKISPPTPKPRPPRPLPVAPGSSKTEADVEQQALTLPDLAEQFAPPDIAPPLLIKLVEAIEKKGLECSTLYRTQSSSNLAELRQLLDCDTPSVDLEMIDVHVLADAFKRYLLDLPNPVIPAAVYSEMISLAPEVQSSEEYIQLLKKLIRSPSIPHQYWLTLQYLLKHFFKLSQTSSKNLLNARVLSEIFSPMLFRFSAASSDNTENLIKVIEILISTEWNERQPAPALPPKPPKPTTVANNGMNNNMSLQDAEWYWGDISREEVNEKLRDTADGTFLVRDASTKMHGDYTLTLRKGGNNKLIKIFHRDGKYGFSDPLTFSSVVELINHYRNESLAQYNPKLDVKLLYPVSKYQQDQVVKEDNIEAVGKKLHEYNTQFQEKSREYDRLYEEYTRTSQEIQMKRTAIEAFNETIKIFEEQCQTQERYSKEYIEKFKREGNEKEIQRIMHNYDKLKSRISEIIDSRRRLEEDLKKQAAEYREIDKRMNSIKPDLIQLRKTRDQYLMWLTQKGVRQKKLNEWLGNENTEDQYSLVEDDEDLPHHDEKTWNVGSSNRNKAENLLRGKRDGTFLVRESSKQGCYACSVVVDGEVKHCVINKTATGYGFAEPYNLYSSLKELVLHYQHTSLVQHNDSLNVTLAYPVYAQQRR
T10 sequence (P42336 whole entry): as the sequence (P42336 whole entry) above
T10 sequence (P27986 whole entry partner): as the sequence (P27986 whole entry partner) above
T7 sequence (P42338 whole entry): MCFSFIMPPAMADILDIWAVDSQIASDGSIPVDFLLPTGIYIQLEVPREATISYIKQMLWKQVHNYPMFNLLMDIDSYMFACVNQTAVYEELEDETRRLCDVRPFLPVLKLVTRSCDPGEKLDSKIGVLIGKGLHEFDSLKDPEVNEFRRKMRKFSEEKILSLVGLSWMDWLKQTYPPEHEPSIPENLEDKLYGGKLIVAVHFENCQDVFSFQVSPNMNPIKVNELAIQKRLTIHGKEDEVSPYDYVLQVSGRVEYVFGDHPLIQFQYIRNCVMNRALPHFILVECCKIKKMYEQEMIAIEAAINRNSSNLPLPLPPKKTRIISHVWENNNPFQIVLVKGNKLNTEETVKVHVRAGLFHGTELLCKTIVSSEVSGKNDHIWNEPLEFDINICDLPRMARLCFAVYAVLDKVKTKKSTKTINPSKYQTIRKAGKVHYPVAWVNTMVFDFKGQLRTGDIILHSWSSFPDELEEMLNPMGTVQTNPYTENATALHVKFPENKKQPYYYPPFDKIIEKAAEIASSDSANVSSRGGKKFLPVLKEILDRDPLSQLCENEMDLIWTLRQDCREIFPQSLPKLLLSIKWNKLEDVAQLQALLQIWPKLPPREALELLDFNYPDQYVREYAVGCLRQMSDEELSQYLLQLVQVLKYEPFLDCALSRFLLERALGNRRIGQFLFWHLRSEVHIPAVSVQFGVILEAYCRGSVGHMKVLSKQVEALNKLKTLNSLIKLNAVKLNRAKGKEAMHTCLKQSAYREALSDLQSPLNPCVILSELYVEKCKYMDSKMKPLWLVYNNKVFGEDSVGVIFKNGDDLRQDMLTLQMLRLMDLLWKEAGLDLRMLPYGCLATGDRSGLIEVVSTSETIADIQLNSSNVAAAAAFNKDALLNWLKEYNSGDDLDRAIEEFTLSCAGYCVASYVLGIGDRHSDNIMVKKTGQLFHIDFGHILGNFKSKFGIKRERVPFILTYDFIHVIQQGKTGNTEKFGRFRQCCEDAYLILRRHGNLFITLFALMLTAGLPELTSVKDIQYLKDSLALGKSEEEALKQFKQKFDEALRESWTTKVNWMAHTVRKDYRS
T7 sequence (P27986 whole entry partner): as the sequence (P27986 whole entry partner) above
T4 sequence (P09769 whole entry): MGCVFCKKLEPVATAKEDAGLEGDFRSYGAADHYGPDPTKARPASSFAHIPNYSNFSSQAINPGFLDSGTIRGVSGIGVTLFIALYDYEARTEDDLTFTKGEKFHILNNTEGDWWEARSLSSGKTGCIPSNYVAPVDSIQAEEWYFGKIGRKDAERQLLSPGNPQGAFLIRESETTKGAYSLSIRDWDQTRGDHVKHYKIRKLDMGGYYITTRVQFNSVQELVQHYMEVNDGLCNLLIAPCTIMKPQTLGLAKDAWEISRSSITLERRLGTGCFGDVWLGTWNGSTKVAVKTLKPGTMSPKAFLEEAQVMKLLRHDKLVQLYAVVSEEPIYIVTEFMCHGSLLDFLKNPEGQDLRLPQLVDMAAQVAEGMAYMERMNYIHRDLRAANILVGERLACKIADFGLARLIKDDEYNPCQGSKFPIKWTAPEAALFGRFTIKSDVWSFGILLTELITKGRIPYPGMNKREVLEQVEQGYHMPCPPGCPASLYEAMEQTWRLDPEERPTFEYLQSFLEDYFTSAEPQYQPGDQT

IC50 (ABL2/ARG): 0.03 µM
IC50 (PI3K-δ): 0.02 µM
IC50 (RPIK2): 0.068 µM
IC50 (FGR): 0.124 µM
IC50 (ABL1): 0.019 µM
IC50 (PI3K-α): 0.013 µM
IC50 (PIK3-β): 0.01 µM
IC50 (PIK3-γ): 0.022 µM
IC50 (PIK3-δ): 0.007 µM
IC50 (PIK3-α): 0.004 µM
IC50 (ABL1 (E255K)): 0.106 µM
IC50 (ABL1 (Q252H)): 0.01 µM
IC50 (ABL1 (H396P)): 0.009 µM
IC50 (ABL1 (Y253F)): 0.06 µM
IC50 (ABL1 (T315I)): 2.73 µM
IC50 (ABL1 (G250E)): 0.035 µM
IC50 (ABL1 (M351T)): 0.012 µM
SMILES: CN1CCN(c2ccc(Nc3ncc4c(n3)S/C(=C/c3ccc([N+](=O)[O-])cc3)C(=O)N4)cc2)CC1 [Compound 1b, (E)-2-(4-(4-Methylpiperazin-1-yl)phenylamino)-7-(4-nitrobenzylidene)-5H-pyrimido[4,5-b][1,4]thiazin-6(7H)-one]
IC50 (DU145 (prostate cancer)): < 1 µM
IC50 [1]: < 1 µM
